In brackets after ≈: the same amount, converted by molar mass. One block for each compound: values may come before it. Bridge positions count the residues as written; N and C are the ends. Square brackets hold non-standard residues; d marks the D form. Peptide text beside a SMILES is read from it. I, II: the chains in the order shown. * marks the point of attachment. ξ: configuration not given here. Pentadecanoyl = CCCCCCCCCCCCCCC(=O)*; NMeR = CN[C@@H](CCCNC(=N)N)C(=O)O; Tridecanoyl = CCCCCCCCCCCCC(=O)*; NMeL = CN[C@@H](CC(C)C)C(=O)O; Undecanoyl = CCCCCCCCCCC(=O)*; NMeK = CN[C@@H](CCCCN)C(=O)O; Lauroyl = CCCCCCCCCCCC(=O)*; Nonanoyl = CCCCCCCCC(=O)*; Octanoyl = CCCCCCCC(=O)*; ξK = NCCCCC(N)C(=O)O
Key:
[1] = test system: Bacillus subtilis; test: Antimicrobial activity against Bacillus subtilis ATCC 23857 assessed as reduction in microbial growth incubated for 18 hrs by Mueller-Hinton Broth based microdilution assay; assay type: functional
[2] = test system: Klebsiella pneumoniae; test: Antimicrobial activity against Klebsiella pneumoniae ATCC 700603 assessed as reduction in microbial growth incubated for 18 hrs by Mueller-Hinton Broth based microdilution assay; assay type: functional
[3] = test system: Pseudomonas aeruginosa; test: Antimicrobial activity against Pseudomonas aeruginosa ATCC 27853 assessed as reduction in microbial growth incubated for 18 hrs by Mueller-Hinton Broth based microdilution assay; assay type: functional
[4] = test system: Staphylococcus aureus; test: Antibacterial activity against Staphylococcus aureus ATCC 25923 assessed as reduction in bacterial growth incubated for 18 hrs by Mueller-Hinton Broth based microdilution assay; assay type: functional
[5] = test system: Escherichia coli; test: Antibacterial activity against Escherichia coli ATCC 25922 assessed as reduction in bacterial growth incubated for 18 hrs by Mueller-Hinton Broth based microdilution assay; assay type: functional
[6] = test system: Staphylococcus aureus; test: Antibacterial activity against Staphylococcus aureus ATCC 25923 assessed as reduction in bacterial cell growth measured for 18 hrs by Mueller-Hinton broth based two-fold serial dilution method; assay type: functional
[7] = test system: Bacillus subtilis; test: Antibacterial activity against Bacillus subtilis ATCC 23857 assessed as reduction in bacterial cell growth measured for 18 hrs by Mueller-Hinton broth based two-fold serial dilution method; assay type: functional
[8] = test system: Escherichia coli; test: Antibacterial activity against Escherichia coli ATCC 25922 assessed as reduction in bacterial cell growth measured for 18 hrs by Mueller-Hinton broth based two-fold serial dilution method; assay type: functional
[9] = test system: Pseudomonas aeruginosa; test: Antibacterial activity against Pseudomonas aeruginosa ATCC 27853 assessed as reduction in bacterial cell growth measured for 18 hrs by Mueller-Hinton broth based two-fold serial dilution method; assay type: functional
[10] = test system: Klebsiella pneumoniae; test: Antibacterial activity against Klebsiella pneumoniae ATCC 700603 assessed as reduction in bacterial cell growth measured for 18 hrs by Mueller-Hinton broth based two-fold serial dilution method; assay type: functional
[11] = test system: Staphylococcus aureus; test: Antibacterial activity against Staphylococcus aureus ATCC 25923 assessed as reduction in bacterial cell growth incubated for 16 to 24 hrs by CLSI-protocol based Mueller-Hinton Broth micro-dilution method; assay type: functional; details: time 16-24 hrs
[12] = test system: Bacillus subtilis; test: Antibacterial activity against Bacillus subtilis ATCC 23857 assessed as reduction in bacterial cell growth incubated for 16 to 24 hrs by CLSI-protocol based Mueller-Hinton Broth micro-dilution method; assay type: functional; details: time 16-24 hrs
[13] = test system: Escherichia coli; test: Antibacterial activity against Escherichia coli ATCC 25922 assessed as reduction in bacterial cell growth incubated for 16 to 24 hrs by CLSI-protocol based Mueller-Hinton Broth micro-dilution method; assay type: functional; details: time 16-24 hrs
[14] = test system: Pseudomonas aeruginosa; test: Antibacterial activity against Pseudomonas aeruginosa ATCC 27853 assessed as reduction in bacterial cell growth incubated for 16 to 24 hrs by CLSI-protocol based Mueller-Hinton Broth micro-dilution method; assay type: functional; details: time 16-24 hrs
[15] = test system: Klebsiella pneumoniae; test: Antibacterial activity against Klebsiella pneumoniae ATCC 700603 assessed as reduction in bacterial cell growth incubated for 16 to 24 hrs by CLSI-protocol based Mueller-Hinton Broth micro-dilution method; assay type: functional; details: time 16-24 hrs
[16] = test system: Erythrocyte; test: Hemolytic activity in human erythrocyte incubated for 70 mins by absorbance based assay; assay type: toxicity, cell-based; details: 1.167 h

MIC [1]: > 128 µM
MIC [2]: > 128 µM
MIC [3]: > 128 µM
MIC [4]: > 128 µM
MIC [5]: > 128 µM
Compound: CC[C@H](C)[C@H](NC(=O)[C@H](CCCNC(=N)N)N(C)C(=O)[C@H](CCCCN)N(C)C(=O)[C@H](CC(C)C)NC(=O)[C@H](CC(C)C)NC(=O)CN)C(=O)N[C@@H](CCCCN)C(=O)N[C@H](C(=O)N[C@@H](CC(C)C)C(=O)N[C@@H](CC(C)C)C(N)=O)[C@@H](C)O (H-GLL[NMeK][NMeR]IKTLL-NH2)

MIC [1]: 64 µM
MIC [2]: > 128 µM
MIC [3]: 64 µM
MIC [4]: > 128 µM
MIC [5]: > 128 µM
Compound: CC[C@H](C)[C@H](NC(=O)[C@H](CCCNC(=N)N)NC(=O)[C@H](CCCCN)NC(=O)[C@H](CC(C)C)N(C)C(=O)[C@H](CC(C)C)NC(=O)CN)C(=O)N[C@@H](CCCCN)C(=O)N[C@H](C(=O)N[C@@H](CC(C)C)C(=O)N[C@@H](CC(C)C)C(N)=O)[C@@H](C)O (H-GL[NMeL]KRIKTLL-NH2)

MIC [6]: 8 µM (≈ 10.4 µg/mL)
MIC [7]: 4 µM (≈ 5.18 µg/mL)
MIC [8]: 8 µM (≈ 10.4 µg/mL)
MIC [9]: 8 µM (≈ 10.4 µg/mL)
MIC [10]: 16 µM (≈ 20.7 µg/mL)
Compound: CCCCCCCCC(=O)NCC(=O)N[C@@H](CC(C)C)C(=O)N[C@@H](CC(C)C)C(=O)N[C@@H](CCCCN)C(=O)N[C@@H](CCCNC(=N)N)C(=O)N[C@H](C(=O)N[C@@H](CCCCN)C(=O)N[C@H](C(=O)N[C@@H](CC(C)C)C(=O)N[C@@H](CC(C)C)C(N)=O)[C@@H](C)O)[C@@H](C)CC (Nonanoyl-GLLKRIKTLL-NH2)

MIC [6]: 16 µM (≈ 22 µg/mL)
MIC [7]: 8 µM (≈ 11 µg/mL)
MIC [8]: 16 µM (≈ 22 µg/mL)
MIC [9]: 16 µM (≈ 22 µg/mL)
MIC [10]: 32 µM (≈ 44.1 µg/mL)
Compound: CCCCCCCCCCCCCCC(=O)NCC(=O)N[C@@H](CC(C)C)C(=O)N[C@@H](CC(C)C)C(=O)N[C@@H](CCCCN)C(=O)N[C@@H](CCCNC(=N)N)C(=O)N[C@H](C(=O)N[C@@H](CCCCN)C(=O)N[C@H](C(=O)N[C@@H](CC(C)C)C(=O)N[C@@H](CC(C)C)C(N)=O)[C@@H](C)O)[C@@H](C)CC (Pentadecanoyl-GLLKRIKTLL-NH2)

MIC [6]: 8 µM (≈ 10.8 µg/mL)
MIC [7]: 4 µM (≈ 5.4 µg/mL)
MIC [8]: 8 µM (≈ 10.8 µg/mL)
MIC [9]: 8 µM (≈ 10.8 µg/mL)
MIC [10]: 16 µM (≈ 21.6 µg/mL)
Compound: CCCCCCCCCCCCC(=O)NCC(=O)N[C@@H](CC(C)C)C(=O)N[C@@H](CC(C)C)C(=O)N[C@@H](CCCCN)C(=O)N[C@@H](CCCNC(=N)N)C(=O)N[C@H](C(=O)N[C@@H](CCCCN)C(=O)N[C@H](C(=O)N[C@@H](CC(C)C)C(=O)N[C@@H](CC(C)C)C(N)=O)[C@@H](C)O)[C@@H](C)CC (Tridecanoyl-GLLKRIKTLL-NH2)

MIC [6]: 8 µM (≈ 10.6 µg/mL)
MIC [7]: 4 µM (≈ 5.29 µg/mL)
MIC [8]: 8 µM (≈ 10.6 µg/mL)
MIC [9]: 8 µM (≈ 10.6 µg/mL)
MIC [10]: 8 µM (≈ 10.6 µg/mL)
Compound: CCCCCCCCCCC(=O)NCC(=O)N[C@@H](CC(C)C)C(=O)N[C@@H](CC(C)C)C(=O)N[C@@H](CCCCN)C(=O)N[C@@H](CCCNC(=N)N)C(=O)N[C@H](C(=O)N[C@@H](CCCCN)C(=O)N[C@H](C(=O)N[C@@H](CC(C)C)C(=O)N[C@@H](CC(C)C)C(N)=O)[C@@H](C)O)[C@@H](C)CC (Undecanoyl-GLLKRIKTLL-NH2)

Compound: I: Lauroyl-GLLKRIKTLL[ξK][ξK]-NH2 / II: Lauroyl-GLLKRIKTLL[ξK] / III: Lauroyl-GLLKRIKTLL / IV: Lauroyl-GLLKRIKTLL (amide I:11-IV:C, I:12-II:C, II:11-III:C)
MIC [11]: 256 µM
MIC [12]: 256 µM
MIC [13]: 125 µM
MIC [14]: 256 µM
MIC [15]: 256 µM
HC10 [16]: 210.92 µM

Compound: I: Octanoyl-GLLKRIKTLL[ξK][ξK]-NH2 / II: Octanoyl-GLLKRIKTLL[ξK] / III: Octanoyl-GLLKRIKTLL / IV: Octanoyl-GLLKRIKTLL (amide I:11-IV:C, I:12-II:C, II:11-III:C)
MIC [11]: 256 µM
MIC [12]: 256 µM
MIC [13]: 256 µM
MIC [14]: 256 µM
MIC [15]: 256 µM
HC10 [16]: 103.4 µM

Reference: ChEMBL document CHEMBL5608163, “Structure modification of anoplin for fighting resistant bacteria” (Eur J Med Chem, 2024)
